Laboratory results from patent US11780901B2, “Analogues of parathyroid hormone (1-34) that function as agonists of the parathyroid hormone receptor-1 and display modified activity profiles” (Wisconsin Alumni Research Foundation, priority 2013, dated 2023).
Read-outs that look alike come from different tables or passages of the source. Starred links: 1 amine or outer side, 2 acyl side, 3 side chain; linkers in the order of their positions; H or OH if unused. Non-standard residues stand in square brackets, D forms with d. Residues, ends and D or L forms follow the SMILES beside them. X2 = CCCC[C@@H](CN[*:1])C(=O)[*:2]; X1 = CCCC[C@H](CN[*:1])C(=O)[*:2]

Columns and labels:
PTHR2 [1] = target: T1, PTHR2 (Homo sapiens, UniProt P49190); assay: PTHR2 activation, cAMP production (GloSensor) in HEK293 cells; type: cell-based; set-up: expressed in transfected cells; key to PTHR2 Activation: Derivative EC50/PTH EC50: *** denotes poor tolerance of β amino acid for PTHR2 activation; conditions: for PTHR2 Activation: Derivative EC50/PTH EC50: normalized to EC50 of PTH(1-34)-NH2 ([…] printed), cAMP production
Procedure, shortened: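 HEK293 cells stably expressing PTHR2; receptor activation read as cAMP production by GloSensor luminescence. Dose-response curves fit with a four-parameter sigmoidal equation; data are mean±s.e.m. of four independent measurements.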

PTHR2 [2] = target: T1, PTHR2; assay: Wash-out assay, duration of PTHR2 activation; type: cell-based; set-up: expressed in transfected cells; host or cells: cells stably expressing PTHR2
Description: (§1) Duration of activation for PTHR1 and PTHR2. To assess the duration of PTHR1 and PTHR2 activation induced by α/β-peptides 14 and 15, the time course of cAMP production by each receptor was examined after stimulation with an agonist and subsequent washing of the cells to remove unbound peptide (wash-out assay). […] During the initial “ligand-on” phase, cells stably expressing PTHR1 or PTHR2 were stimulated with an agonist concentration corresponding to ˜EC80; the medium contained D-luciferin. […] After the addition of fresh medium containing D-luciferin, the luminescence decay is measured. The area under the “ligand-off” curve (AUC) reflects the duration of signaling, which may be related to residence time of the agonist on the receptor but could have other origins at the molecular level.

PTHR1 [3] = target: T2, PTHR1 (Homo sapiens, UniProt Q03431); assay: Wash-out assay, duration of PTHR1 activation; type: cell-based; set-up: expressed in transfected cells; host or cells: cells stably expressing PTHR1
T2 sequence (Q03431 27-593): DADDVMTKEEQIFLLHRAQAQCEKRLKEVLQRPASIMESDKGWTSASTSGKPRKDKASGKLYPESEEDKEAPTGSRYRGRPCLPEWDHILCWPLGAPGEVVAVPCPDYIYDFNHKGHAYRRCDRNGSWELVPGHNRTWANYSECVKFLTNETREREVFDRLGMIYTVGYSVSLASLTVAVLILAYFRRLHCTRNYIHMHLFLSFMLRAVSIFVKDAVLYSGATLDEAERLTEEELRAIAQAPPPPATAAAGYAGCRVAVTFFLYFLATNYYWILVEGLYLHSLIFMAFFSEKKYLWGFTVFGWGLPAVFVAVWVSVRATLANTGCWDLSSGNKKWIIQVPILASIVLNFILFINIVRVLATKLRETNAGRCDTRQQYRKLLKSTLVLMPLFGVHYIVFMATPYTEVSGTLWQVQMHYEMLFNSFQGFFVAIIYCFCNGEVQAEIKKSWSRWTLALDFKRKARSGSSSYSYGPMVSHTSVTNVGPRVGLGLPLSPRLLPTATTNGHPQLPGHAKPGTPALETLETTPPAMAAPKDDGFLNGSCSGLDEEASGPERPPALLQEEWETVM
Description: as §1

PTHR1 [4] = target: T2, PTHR1; assay: PTHR1 activation, cAMP production (GloSensor) in HEK293 cells; type: cell-based; set-up: expressed in transfected cells; conditions: for PTHR1 Activation: Derivative EC50/PTH EC50: normalized to EC50 of PTH(1-34)-NH2 ([…]), cAMP production
PTHR1 and PTHR2 = assay: Tolerance pattern of β residues for PTHR1 and PTHR2 activation; type: cell-based; set-up: key: “*” denotes potent PTHR1-selective agonism; “#” denotes potent PTHR2-selective agonism; “*#” denotes potent agonism of both PTHR1 and PTHR2; conditions: PTHR1 vs PTHR2 agonism
Description: Enhanced selectivity via double α→β replacement.

PTHR1 [5] = assay: β-arr2 | pEC50
PTHR1 [6] = assay: cAMP | pEC50
Description: Table printed on a drawing sheet, FIG. 2
(§2) Head of the field: cAMP | pEC50
First copying reader's note: The error (±) stands inside the result cells.

PTHR1 [7] = assay: β-arr1 | pEC50
PTHR1 [8] = assay: β-arr2 | pEC50; remark: listed apart in the source
PTHR1 [9] = assay: cAMP | pEC50; remark: listed apart in the source
Description: Table printed on a drawing sheet, FIG. 5
as §2
The patent's description of the figure: FIG. 5 depicts graphs and a corresponding table reporting the EC50 and Emax of PTHR1 agonists Ligands 8-13 (SEQ. ID. NOS: 8-13) for cAMP signaling and β-arrestin (βarr) recruitment.
First copying reader's note: Each value cell carries its own ± error; the rows for Ligand 8, 10 and 12 are printed on dark shading.
Where the first naming reader finds the target: description_of_the_figure: EC50 and Emax of PTHR1 agonists Ligands 8-13 (SEQ. ID. NOS: 8-13) for cAMP signaling and β-arrestin (βarr) recruitment.

PTHR1 [10] = assay: β-arr1 | pEC50; remark: listed apart in the source
[11] = HEK-293 cells, GloSensor cAMP, read-out: EC50 (nM) of PTHR2 Activation
[12] = read-out: Normalized ligand-on Emax
[13] = HEK-293 cells, GloSensor cAMP, read-out: EC50 (nM) of PTHR1 Activation

T1 sequence (P49190 25-550): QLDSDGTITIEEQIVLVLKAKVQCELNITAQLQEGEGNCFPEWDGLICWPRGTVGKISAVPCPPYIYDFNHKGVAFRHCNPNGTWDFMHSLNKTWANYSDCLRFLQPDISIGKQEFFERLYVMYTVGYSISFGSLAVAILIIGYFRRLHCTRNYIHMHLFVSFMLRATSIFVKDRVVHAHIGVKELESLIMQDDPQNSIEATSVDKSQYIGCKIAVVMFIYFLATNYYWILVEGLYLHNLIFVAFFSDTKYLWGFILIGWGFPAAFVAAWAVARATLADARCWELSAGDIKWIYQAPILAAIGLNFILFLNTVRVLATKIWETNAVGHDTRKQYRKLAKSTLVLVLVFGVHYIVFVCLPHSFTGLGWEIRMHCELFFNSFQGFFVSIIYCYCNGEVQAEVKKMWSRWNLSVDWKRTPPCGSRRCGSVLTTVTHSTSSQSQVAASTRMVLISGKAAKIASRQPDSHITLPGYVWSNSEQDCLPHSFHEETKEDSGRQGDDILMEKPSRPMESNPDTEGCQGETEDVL

Compound: CC[C@H](C)[C@H](NC(=O)[C@H](CCC(=O)O)NC(=O)[C@H](CO)NC(=O)[C@@H](NC(=O)[C@@H](N)CO)C(C)C)C(=O)N[C@@H](CCC(N)=O)C(=O)N[C@@H](CC(C)C)C(=O)N[C@@H](CCSC)C(=O)N[C@@H](Cc1c[nH]cn1)C(=O)N[C@@H](CC(N)=O)C(=O)N[C@@H](CC(C)C)C(=O)NCC(=O)N[C@@H](CCCCN)C(=O)N[C@@H](Cc1c[nH]cn1)C(=O)N[C@@H](CC(C)C)C(=O)N[C@@H](CC(N)=O)C(=O)N[C@@H](CO)C(=O)N[C@@H](CCSC)C(=O)N[C@@H](CCC(=O)O)C(=O)N[C@@H](CCCNC(=N)N)C(=O)N[C@H](C(=O)N[C@@H](CCC(=O)O)C(=O)N[C@@H](Cc1c[nH]c2ccccc12)C(=O)N[C@@H](CC(C)C)C(=O)N[C@@H](CCCNC(=N)N)C(=O)N[C@@H](CCCCN)C(=O)N[C@@H](CCCCN)C(=O)N[C@@H](CC(C)C)C(=O)N[C@@H](CCC(N)=O)C(=O)N[C@@H](CC(=O)O)C(=O)N[C@H](C(=O)N[C@@H](Cc1c[nH]cn1)C(=O)N[C@@H](CC(N)=O)C(=O)N[C@@H](Cc1ccccc1)C(N)=O)C(C)C)C(C)C [PTH(1-34)-NH2, reference compound]
- Emax (PTHR2 [1]; HEK293): 100%
- EC50 (PTHR2 [1]; [11]): 0.97 nM
- EC50 (PTHR2 [1]; Table 5, HEK293 cells stably expressing PTHR2, read-out: PTHR2 EC50): 1.07 ± 0.14 nM
- Normalized ligand-off AUC (PTHR2 [2]; PTHR2, after washout, PTH(1-34)-NH2 = 100): 100
- Emax (PTHR2 [2]; [12]): 100%
- Normalized ligand-off AUC (PTHR1 [3]; PTHR1, after washout, PTH(1-34)-NH2 = 100): 100
- Emax (PTHR1 [3]; [12]): 100%
- Emax (PTHR1 [4]; HEK293): 100%

Compound: CCCC[C@H](CNC(=O)[C@H](CC(C)C)NC(=O)[C@H](CCC(N)=O)NC(=O)[C@@H](NC(=O)[C@H](CCC(=O)O)NC(=O)[C@H](CO)NC(=O)[C@@H](NC(=O)[C@@H](N)CO)C(C)C)[C@@H](C)CC)C(=O)N[C@@H](Cc1c[nH]cn1)C(=O)N[C@@H](CC(N)=O)C(=O)N[C@@H](CC(C)C)C(=O)NCC(=O)N[C@@H](CCCCN)C(=O)N[C@@H](Cc1c[nH]cn1)C(=O)N[C@@H](CC(C)C)C(=O)N[C@@H](CC(N)=O)C(=O)N[C@@H](CO)C(=O)N[C@@H](CCSC)C(=O)N[C@@H](CCC(=O)O)C(=O)N[C@@H](CCCNC(=N)N)C(=O)N[C@H](C(=O)N[C@@H](CCC(=O)O)C(=O)N[C@@H](Cc1c[nH]c2ccccc12)C(=O)N[C@@H](CC(C)C)C(=O)N[C@@H](CCCNC(=N)N)C(=O)N[C@@H](CCCCN)C(=O)N[C@@H](CCCCN)C(=O)N[C@@H](CC(C)C)C(=O)N[C@@H](CCC(N)=O)C(=O)N[C@@H](CC(=O)O)C(=O)N[C@H](C(=O)N[C@@H](Cc1c[nH]cn1)C(=O)N[C@@H](CC(N)=O)C(=O)N[C@@H](Cc1ccccc1)C(N)=O)C(C)C)C(C)C [SEQ. ID. NO: 29] (H-SVSEIQL[X1]HNLGKHLNSMERVEWLRKKLQDVHNF-NH2; N-terminus assumed)
- EC50 (PTHR2 [1]; [11]): > 1000 nM
- PTHR2 Activation: Derivative EC50/PTH EC50 (PTHR2 [1]): ***
- Tolerance Pattern of β AA (PTHR1 and PTHR2): *
- EC50 (PTHR1 [4]; [13]): 0.4 ± 0.07 nM
- PTHR1 Activation: Derivative EC50/PTH EC50 (PTHR1 [4]): 1.05

Compound: CCCC[C@@H](CNC(=O)[C@H](CC(C)C)NC(=O)[C@H](CCC(N)=O)NC(=O)[C@@H](NC(=O)[C@H](CCC(=O)O)NC(=O)[C@H](CO)NC(=O)[C@@H](NC(=O)[C@@H](N)CO)C(C)C)[C@@H](C)CC)C(=O)N[C@@H](Cc1c[nH]cn1)C(=O)N[C@@H](CC(N)=O)C(=O)N[C@@H](CC(C)C)C(=O)NCC(=O)N[C@@H](CCCCN)C(=O)N[C@@H](Cc1c[nH]cn1)C(=O)N[C@@H](CC(C)C)C(=O)N[C@@H](CC(N)=O)C(=O)N[C@@H](CO)C(=O)N[C@@H](CCSC)C(=O)N[C@@H](CCC(=O)O)C(=O)N[C@@H](CCCNC(=N)N)C(=O)N[C@H](C(=O)N[C@@H](CCC(=O)O)C(=O)N[C@@H](Cc1c[nH]c2ccccc12)C(=O)N[C@@H](CC(C)C)C(=O)N[C@@H](CCCNC(=N)N)C(=O)N[C@@H](CCCCN)C(=O)N[C@@H](CCCCN)C(=O)N[C@@H](CC(C)C)C(=O)N[C@@H](CCC(N)=O)C(=O)N[C@@H](CC(=O)O)C(=O)N[C@H](C(=O)N[C@@H](Cc1c[nH]cn1)C(=O)N[C@@H](CC(N)=O)C(=O)N[C@@H](Cc1ccccc1)C(N)=O)C(C)C)C(C)C [SEQ. ID. NO: 37] (H-SVSEIQL[X2]HNLGKHLNSMERVEWLRKKLQDVHNF-NH2; N-terminus assumed)
- EC50 (PTHR2 [1]; [11]): 10.3 ± 1.65 nM
- PTHR2 Activation: Derivative EC50/PTH EC50 (PTHR2 [1]): 11.85
- Tolerance Pattern of β AA (PTHR1 and PTHR2): *
- EC50 (PTHR1 [4]; [13]): 0.38 ± 0.07 nM
- EC50 (PTHR1 [4]; Table 8, hPTHR1, read-out: PTHR1 EC50): 10.3 ± 1.65 nM
- PTHR1 Activation: Derivative EC50/PTH EC50 (PTHR1 [4]): 1.00

Compound: BA058: also known as abaloparatide
- β-arr2 | pEC50 (PTHR1 [5]): 8.52 ± 0.06
- cAMP | pEC50 (PTHR1 [6]): 10.05 ± 0.05
- β-arr1 | pEC50 (PTHR1 [7]): 8.38 ± 0.12

Compound: LA-PTH: long-acting PTH analog (AVAEIQLMHQRAKWIQDARRRAFLHKLIAEIHTAEI; Long-acting (LA)-PTH, a parathyroid hormone analog)
- β-arr2 | pEC50 (PTHR1 [5]): 8.20 ± 0.06
- cAMP | pEC50 (PTHR1 [6]): 9.06 ± 0.06
- β-arr1 | pEC50 (PTHR1 [7]): 8.16 ± 0.06

Compound: Ligand 13: PTH(1-34) analogue with replaced residue at position 8 (character image) (SVSEIQLXHNLGKHLNSMERVEWLRKKLQDVHNF; non-natural residue at position 8; MOD_RES (8)..(8) X at position 8 is (S*)-Beta-2-Norleucine)
- β-arr2 | pEC50 (PTHR1 [8]): 8.16 ± 0.09
- cAMP | pEC50 (PTHR1 [9]): 9.44 ± 0.08
- β-arr1 | pEC50 (PTHR1 [10]): 8.03 ± 0.10

Compound: SVSEIQL^nLHNLGKHLNSMERVEWLRKKLQDVHNF (SVSEIQLXHNLGKHLNSMERVEWLRKKLQDVHNF; (R)-beta2-Nle at position 8; MOD_RES (8)..(8) X at position 8 is (R)-Beta-2-Norleucine.) [Ligand 11]
- β-arr2 | pEC50 (PTHR1 [8]): 8.28 ± 0.02
- cAMP | pEC50 (PTHR1 [9]): 9.03 ± 0.10
- β-arr1 | pEC50 (PTHR1 [10]): 8.33 ± 0.05
